Laboratory results published in patent US20150164875A1, “Compound Preparation of Lercanidipine and Atorvastatin” (ZHAOKE PHARMACEUTICAL (GUANGZHOU) COMPANY LIMITED, priority 2012, published 2015).
Where a name gives a salt, the structure may show the parent alone. Read-outs that look alike come from different tables or passages of the source.

How the values were obtained:
[1] = test system: rats with spontaneous hypertension (adult MHS rats) fed with high fat diet; experiment: Systolic pressure in rats with spontaneous hypertension accompanied by dyslipidemia (Example 4); type: in vivo, rat; settings: for systolic pressure: B 0.4 mg/kg, C 0.8 mg/kg, D 0.4 mg/kg+0.8 mg/kg, Mean ± SD
Method: (§1) 5-month-old rats with spontaneous hypertension (adult MHS rats), half males and half females, were fed with high fat diet every day (1.0% of cholesterol, 0.2% of propylthiouracil, 0.5% of sodium cholate, 5.0% of lard, 1.0% of methionine and 92.3% of basal diet) for four weeks; after four weeks, the basal systolic pressure and lipid levels in rats weighing 200-240 g were determined. Rats with hypertension accompanied with dyslipidemia were evenly divided into 4 groups with 12 rates in each group. The four groups were respectively as follows: solvent control group (A), lercanidipine group (lercanidipine hydrochloride, 0.4 mg/kg) (B), atorvastatin group (atorvastatin calcium, 0.8 mg/kg) (C), and lercanidipine/atorvastatin compound group (lercanidipine hydrochloride+atorvastatin calcium, 0.4 mg/kg+0.8 mg/kg) (D). Each group of drugs was formulated with physiological saline, and were administered to rats by gavage once a day for 4 consecutive weeks. Rats were measured 2 hours after administration at the end of each week for the systolic pressure and total serum cholesterol levels and so on.

[2] = test system: rats with spontaneous hypertension (adult MHS rats) fed with high fat diet; experiment: Total serum cholesterol in rats with spontaneous hypertension accompanied by dyslipidemia (Example 4); type: in vivo, rat; settings: for total cholesterol: B 0.4 mg/kg, C 0.8 mg/kg, D 0.4 mg/kg+0.8 mg/kg, Mean ± SD; for change in total cholesterol (in words): over 4 weeks of administration, C and D p<0.05, B p>0.05
Method: as §1

[3] = test system: SD rats with hypertension accompanied by dyslipidemia; experiment: Decrease in systolic pressure in experimental (renal artery clip) rats with hypertension accompanied by dyslipidemia (Example 5); type: in vivo, rat; settings: for Degree of antihypertension: gavage once a day, 20 weeks, systolic pressure before minus after administration, Mean ± SD; for systolic pressure as compared with the solvent control group (in words): end of week 20, lercanidipine 0.5 mg/kg, atorvastatin 1.0 mg/kg, compound 0.5 mg/kg+0.5/1.0/2.0 mg/kg, positive control 0.5 mg/kg+1.0 mg/kg
Method: SD rats, weighing 150-180 g, were anaesthetized by intraperitoneal injection with chloral hydrate (320 mg/kg). The abdominal cavity was opened, and the left renal artery was separated and was restricted with 0.2 mm silver clip. At 8-10 weeks following the procedure, rats with systolic pressure ≧140 mmHg were recognized as hypertension rats. Rats with hypertension were administered with vitamin D3 by gavage in a total dosage of 600,000 U/kg in three days, and then were fed with high-fat diet every day (cholesterol 1.0%, propylthiouracil 0.2%, sodium cholate 0.5%, lard 5.0%, methionine 1.0%, basal diet 92.3%). Rats in normal control group were fed with normal diet. After four weeks, systolic pressure was measured in rats, serum total cholesterol (TC) and triglyceride (TG) levels were determined by taking blood from tail vein.
(§2) 140 rats with hypertension accompanied by dyslipidemia were evenly divided into 7 groups with 20 rats in each group according to blood pressure and lipid levels, which were respectively solvent control group, lercanidipine group (lercanidipine hydrochloride, 0.5 mg/kg), atorvastatin group (atorvastatin calcium, 1.0 mg/kg), lercanidipine/atorvastatin compound group 1 (lercanidipine hydrochloride+atorvastatin calcium, 0.5 mg/kg+0.5 mg/kg), lercanidipine/atorvastatin compound group 2 (lercanidipine hydrochloride+atorvastatin calcium, 0.5 mg/kg+1.0 mg/kg), lercanidipine/atorvastatin compound group 3 (lercanidipine hydrochloride+atorvastatin calcium, 0.5 mg/kg+2.0 mg/kg), and positive control group (amlodipine besylate+atorvastatin calcium, 0.5 mg/kg+1.0 mg/kg).
(§3) Another 20 normal rats served as normal control group. Rats with hypertension were continued to be fed with the high-fat diet, and rats in normal group were fed with normal diet. Each group of drugs was formulated with physiological saline, and for the normal control group and solvent control group rats, same volume of physiological saline were administered. Rats were administered by gavage once a day for 20 consecutive weeks. Rats were weighed once a week, and the dosage was adjusted based on the weight. Blood pressures in different time points before and after administration were measured respectively to calculate the magnitude of the decrease in blood pressure (systolic pressure before administration−systolic pressure after administration). Rats were sampled 20 weeks later, and the serum total cholesterol (TC) and triglyceride (TG) levels were determined. The corresponding parameters for each group were represented with the mean±standard deviation (Mean±SD), and t-test was used to compare different groups.

[4] = test system: SD rats with hypertension accompanied by dyslipidemia; experiment: Serum TC and TG in experimental rats with hypertension accompanied by dyslipidemia (Example 5); type: in vivo, rat; settings: for TC / TG: gavage once a day, serum after 20 weeks, Mean ± SD; for TC and TG as compared with the solvent control group (in words): end of week 20, lercanidipine 0.5 mg/kg, atorvastatin 1.0 mg/kg, compound 0.5 mg/kg+0.5/1.0/2.0 mg/kg, positive control 0.5 mg/kg+1.0 mg/kg
Method: SD rats, weighing 150-180 g, were anaesthetized by intraperitoneal injection with chloral hydrate (320 mg/kg). The abdominal cavity was opened, and the left renal artery was separated and was restricted with 0.2 mm silver clip. […] Rats in normal control group were fed with normal diet. After four weeks, systolic pressure was measured in rats, serum total cholesterol (TC) and triglyceride (TG) levels were determined by taking blood from tail vein.
as §2, §3

[5] = cited from earlier work
[6] = 0 week (basal, before administration)
[7] = 1 week, 2 hours after administration, gavage once a day
[8] = 2 weeks, 2 hours after administration, gavage once a day
[9] = 3 weeks, 2 hours after administration, gavage once a day
[10] = 4 weeks, 2 hours after administration, gavage once a day

Row | Structure (SMILES) | systolic pressure [1, 6] [mmHg] | systolic pressure [1, 7] [mmHg] | systolic pressure [1, 8] [mmHg] | systolic pressure [1, 9] [mmHg] | systolic pressure [1, 10] [mmHg] | total cholesterol [2, 6] [mmol/L] | total cholesterol ([2]; 1 week, gavage once a day) [mmol/L] | total cholesterol ([2]; 2 weeks, gavage once a day) [mmol/L] | total cholesterol ([2]; 3 weeks, gavage once a day) [mmol/L] | total cholesterol ([2]; 4 weeks, gavage once a day) [mmol/L] | change in total cholesterol (in words) [2] | systolic pressure as compared with the solvent control group (in words) [3] | TC and TG as compared with the solvent control group (in words) [4] | further results
1 | COC(=O)C1=C(C)NC(C)=C(C(=O)OC(C)(C)CN(C)CCC(c2ccccc2)c2ccccc2)C1c1cccc([N+](=O)[O-])c1 (stereo not drawn) [Group B, lercanidipine hydrochloride] | 162 ± 4.1 | 158 ± 3.7 | 149 ± 5.1 | 138 ± 3.4 | 135 ± 2.5 | 8.49 ± 3.01 | 7.95 ± 2.48 | 7.55 ± 1.94 | 7.28 ± 1.76 | 7.01 ± 1.77 | decreased | significantly decreased | improved | change in systolic pressure (in words) ([1]; over 4 weeks of administration, p<0.01): decreased to normal blood pressure levels; Degree of antihypertension ([3]; dosage 0.5 mg/kg): 35.8 ± 9.65 mmHg; TC ([4]; dosage 0.5 mg/kg): 8.27 ± 2.96 mmol/L; TG ([4]; dosage 0.5 mg/kg): 2.43 ± 1.21 mmol/L
2 | CC(C)c1c(C(=O)Nc2ccccc2)c(-c2ccccc2)c(-c2ccc(F)cc2)n1CC[C@@H](O)C[C@@H](O)CC(=O)[O-].CC(C)c1c(C(=O)Nc2ccccc2)c(-c2ccccc2)c(-c2ccc(F)cc2)n1CC[C@@H](O)C[C@@H](O)CC(=O)[O-].[Ca+2] [Group C, atorvastatin calcium] | 160 ± 5.3 | 166 ± 2.9 | 161 ± 5.1 | 159 ± 4.2 | 158 ± 3.7 | 8.75 ± 2.65 | 7.51 ± 1.79 | 6.67 ± 2.03 | 6.15 ± 1.47 | 5.72 ± 1.48 | significant | improved | significantly decreased | Degree of antihypertension ([3]; dosage 1.0 mg/kg): 2.4 ± 1.98 mmHg; TC ([4]; dosage 1.0 mg/kg): 5.27 ± 4.03 mmol/L; TG ([4]; dosage 1.0 mg/kg): 1.49 ± 0.74 mmol/L; lipid-lowering effect improved ([5]; comparing with the same dose of lovastatin): 51%; lipid-lowering effect improved ([5]; comparing with the same dose of pravastatin): 46%; lipid-lowering effect improved ([5]; comparing with the same dose of simvastatin): 38%
